Where “and” joins values, the source holds several entries; their conditions need not be identical. Equal values may be shown once.
Conditions: Gas, Buoyancy - hydrostatic balance with magnetic suspension - two sinkers

N#N [nitrogen]
Conditions	mass density
250 K, 4032 kPa	55.8107 kg/m3 [middle of 5 runs]
250 K, 7922 kPa	111.201 kg/m3
250 K, 7922.1 kPa	111.201 kg/m3
250 K, 11944 kPa	167.531 kg/m3 and 167.53 kg/m3
250 K, 15945 kPa	220.078 kg/m3 and 220.076 kg/m3
250 K, 15946 kPa	220.079 kg/m3
250 K, 19672 kPa	264.436 kg/m3 [middle of 5 runs]
250 K, 23918 kPa	309.033 kg/m3 and 309.035 kg/m3 and 309.038 kg/m3
250 K, 23919 kPa	309.043 kg/m3
250 K, 23920 kPa	309.056 kg/m3
250 K, 23921 kPa	309.062 kg/m3
250 K, 27922 kPa	345.621 kg/m3 [middle of 4 runs]
250 K, 27923 kPa	345.629 kg/m3 and 345.627 kg/m3
250 K, 31914 kPa	377.498 kg/m3 and 377.5 kg/m3
250 K, 31915 kPa	377.505 kg/m3 and 377.504 kg/m3
250 K, 31916 kPa	377.516 kg/m3 and 377.513 kg/m3
273.16 K, 3969.2 kPa	49.6242 kg/m3 [middle of 4 runs]
273.16 K, 3969.3 kPa	49.6242 kg/m3
273.16 K, 6172.5 kPa	77.4431 kg/m3 and 77.4438 kg/m3 and 77.4433 kg/m3
273.16 K, 6172.6 kPa	77.4441 kg/m3 and 77.4442 kg/m3
273.16 K, 8165.1 kPa	102.478 kg/m3 and 102.48 kg/m3
273.16 K, 8165.2 kPa	102.48 kg/m3 and 102.479 kg/m3
273.16 K, 12168 kPa	151.567 kg/m3 [middle of 5 runs]
273.16 K, 16376 kPa	200.13 kg/m3 [middle of 5 runs]
273.16 K, 20308 kPa	241.736 kg/m3 and 241.739 kg/m3
273.16 K, 20309 kPa	241.746 kg/m3 and 241.745 kg/m3 and 241.743 kg/m3
273.16 K, 24524 kPa	281.91 kg/m3
273.16 K, 24525 kPa	281.913 kg/m3 and 281.915 kg/m3
273.16 K, 24526 kPa	281.922 kg/m3 and 281.921 kg/m3
273.16 K, 28792 kPa	318.055 kg/m3
273.16 K, 28793 kPa	318.057 kg/m3 and 318.058 kg/m3
273.16 K, 28794 kPa	318.067 kg/m3 and 318.065 kg/m3
273.16 K, 33963 kPa	356.391 kg/m3
273.16 K, 33964 kPa	356.402 kg/m3 and 356.397 kg/m3
273.16 K, 33965 kPa	356.407 kg/m3
273.16 K, 33966 kPa	356.413 kg/m3
293.14 K, 99.9 kPa	1.1487 kg/m3 [middle of 4 runs]
293.14 K, 199.8 kPa	2.2978 kg/m3 and 2.2977 kg/m3 and 2.2976 kg/m3
293.14 K, 299.7 kPa	3.447 kg/m3 and 3.4472 kg/m3 and 3.4473 kg/m3
293.14 K, 499.5 kPa	5.7475 kg/m3 and 5.7477 kg/m3 and 5.7476 kg/m3
293.14 K, 749.2 kPa	8.6261 kg/m3 and 8.626 kg/m3
293.14 K, 749.3 kPa	8.6261 kg/m3
293.14 K, 999 kPa	11.5072 kg/m3 [middle of 5 runs]
293.14 K, 1498.5 kPa	17.2762 kg/m3 [middle of 6 runs]
293.14 K, 1998 kPa	23.0541 kg/m3 and 23.0539 kg/m3
293.14 K, 2997.1 kPa	34.6233 kg/m3 and 34.6235 kg/m3 and 34.6236 kg/m3
293.14 K, 3996.1 kPa	46.1976 kg/m3 [middle of 5 runs]
293.14 K, 4995.1 kPa	57.7592 kg/m3
293.14 K, 4995.2 kPa	57.7597 kg/m3 and 57.7599 kg/m3
293.14 K, 5994.2 kPa	69.2908 kg/m3 and 69.291 kg/m3 and 69.2909 kg/m3
293.14 K, 5994.3 kPa	69.2914 kg/m3 and 69.2915 kg/m3
293.15 K, 4004.8 kPa	46.2934 kg/m3 [middle of 6 runs]
293.15 K, 4004.9 kPa	46.2937 kg/m3
293.15 K, 5964.9 kPa	68.9512 kg/m3 [middle of 5 runs]
293.15 K, 7948.6 kPa	91.6869 kg/m3 [middle of 4 runs]
293.15 K, 7948.8 kPa	91.689 kg/m3 and 91.6881 kg/m3
293.15 K, 11980 kPa	136.716 kg/m3 [middle of 7 runs]
293.15 K, 15954 kPa	178.78 kg/m3
293.15 K, 15955 kPa	178.782 kg/m3 [middle of 7 runs]
293.15 K, 19567 kPa	214.452 kg/m3 and 214.453 kg/m3
293.15 K, 19568 kPa	214.457 kg/m3
293.15 K, 24175 kPa	256.042 kg/m3
293.15 K, 24176 kPa	256.052 kg/m3 [middle of 4 runs]
293.15 K, 28412 kPa	290.447 kg/m3 [middle of 4 runs]
293.15 K, 28413 kPa	290.455 kg/m3 and 290.453 kg/m3
293.15 K, 32144 kPa	317.902 kg/m3
293.15 K, 32145 kPa	317.909 kg/m3 and 317.905 kg/m3
293.15 K, 32146 kPa	317.912 kg/m3
293.15 K, 32147 kPa	317.922 kg/m3 and 317.917 kg/m3
293.15 K, 32148 kPa	317.926 kg/m3
320 K, 4775.8 kPa	50.1489 kg/m3 and 50.1482 kg/m3 and 50.1481 kg/m3
320 K, 4775.9 kPa	50.1492 kg/m3 and 50.1493 kg/m3 and 50.149 kg/m3
320 K, 10135 kPa	104.999 kg/m3 and 105.001 kg/m3 and 105.002 kg/m3
320 K, 20210 kPa	198.799 kg/m3 [middle of 6 runs]
339.98 K, 499.5 kPa	4.9482 kg/m3 and 4.9481 kg/m3 and 4.948 kg/m3
339.98 K, 999 kPa	9.8915 kg/m3 and 9.8916 kg/m3
339.98 K, 1998 kPa	19.7585 kg/m3 and 19.7583 kg/m3 and 19.7584 kg/m3
339.98 K, 3996 kPa	39.3819 kg/m3 [middle of 4 runs]
339.98 K, 5994.1 kPa	58.7959 kg/m3 and 58.796 kg/m3
339.99 K, 5081.9 kPa	49.9596 kg/m3
339.99 K, 5082 kPa	49.9602 kg/m3 and 49.9596 kg/m3
339.99 K, 5082.1 kPa	49.9616 kg/m3
339.99 K, 21784 kPa	198.014 kg/m3
340 K, 5082 kPa	49.96 kg/m3
340 K, 10840 kPa	104.588 kg/m3 and 104.589 kg/m3
340 K, 21784 kPa	198.008 kg/m3 [middle of 5 runs]
340.01 K, 3874.6 kPa	38.1897 kg/m3 [middle of 6 runs]
340.01 K, 5932.3 kPa	58.1965 kg/m3 and 58.1955 kg/m3
340.01 K, 5932.4 kPa	58.1962 kg/m3
340.01 K, 7789.6 kPa	75.9992 kg/m3
340.01 K, 7789.7 kPa	76.0004 kg/m3 [middle of 5 runs]
